Data from patent US11225474B2, “Crystalline salt forms of 3-(1,2,4-triazolo[4,3-a]pyridine-3-ylethynyl)-4-methyl-N-(4-((4-methylpiperazin-1-yl)methyl)-3-trifluoromethylphenyl)benzamide for medical application” (priority 2016, dated 2022).
Converted amounts (≈) assume the structure as drawn. Read-outs that look alike come from different tables or passages of the source.

Legend:
[1] = Hygroscopicity by gravimetric moisture absorption; type: physicochemical; settings: for water absorbed (hygroscopicity): relative air humidity of 90%
From the text: Samples were also studied using the following methods: polarization microscopy (Leica DMRB Polarized Microscope, resolution of 1600×1200)—to confirm crystallinity, ion chromatography—to confirm anion and cation stoichiometric proportion, differential scanning calorimetry (DSC) and thermogravimetric analysis (TGA)—to confirm composition and study of temperature stability of samples; ^1H NMR (500 MHz Bruker AVANCE 500.13 MHz, solvent DMSO-d6)—to confirm structure, assess purity and content of organic solvents; gravimetric moisture absorption—to assess hygroscopicity. DSC was carried out using Mettler 822e DSC apparatus. The measuring system was calibrated according to ISO 11357-1 standard based on standard substances phase changes (C6H12; Hg; benzoic acid; Ga; KNO3; In; Sn; Bi; CsCl; purity grade 99.99%). Temperature calibration regular error (determined based on In) is 0.1°. Samples were tested in standard aluminum cells in the artificial air flow at a temperature range of 30-300° C. with heating speed of 10°/min. TG measurements were taken using Mettler 851e SDTA/TGA TG analyzer. The apparatus was calibrated using standard substances melting points (Ag; Al; Bi; In; Sn; purity grade of 99.99%). Weighing error is NMT 0.1% (determined using CaC2O4·2H2O standard). The test was carried out in a standard open aluminum container in the artificial air flow at a temperature range of 30-150° C. with heating speed of 10°/min. To avoid dehydration, the material was not exposed to mechanical treatment before taking measurements.

[2] = physchem; type: physicochemical; settings: deionized water
[3] = Stability of polymorph modifications, suspending in acetone for 6 days; type: physicochemical; settings: for crystalline structure after suspending in acetone: 6 days; for Crystallinity in 6 days: suspending in acetone for 6 days, room temperature
Protocol: Crystallinity of all samples obtained was studied using the method of X-ray powder diffraction (to study the crystallinity structure). Diffraction patterns were obtained at a temperature of 25° C. […] Survey step 0.02° 2θ, angle range 3-45° 2θ. Diffraction patterns obtained were studied in detail using X'Pert HighScore Plus software package.

[4] = Stability, 7 days at T = 60° C.; type: physicochemical; settings: for Crystallinity in 7 days / Relative peak area, in 7 days: 7 days at T = 60° C.; for Relative peak area, initial: before storage; for content of impurities: kept seven days at 60° C.
[5] = for pH: equilibrium solubility test in water; for Crystallinity in 24 h: solid in water, equilibrium solubility test
[6] = Dissolution kinetics (USP Apparatus 1 Basket Method); type: physicochemical; settings: for pH of prepared solution: 780 minutes after beginning
Protocol: During further studies of the polymorphous modifications of the methanesulfonic acid salt of 3-(1,2,4-triazolo[4,3-a]pyridine-3-ylethynyl)-4-methyl-N-(4-((4-methylpiperazine-1-yl)methyl)-3-trifluoromethylphenyl)benzamide, the kinetics of dissolution of the free base and the two methanesulfonic acid salt form polymorphous modifications was studied. Dissolution kinetics studies were performed using USP Apparatus 1 Basket Method (USP40, General Chapter <711>. Dissolution), dissolution media volume—700 mL, temperature—37±1° C. paddle stirrers' rotation rate—100 rpm. The test sample dissolution rate was calculated as an average of six repeats. Distilled water was used as the dissolution medium for the polymorphous modifications of 3-(1,2,4-triazolo[4,3-a]pyridine-3-ylethynyl)-4-methyl-N-(4-((4-methylpiperazine-1-yl)methyl)-3-trifluoromethylphenyl)benzamide methanesulfonic acid salt and, and a solution of 12.2 mL of methanesulfonic acid in 500 mL of water was used as the dissolution medium for the free base. Test portions containing 100 mg of 3-(1,2,4-triazolo[4,3-a]pyridine-3-ylethynyl)-4-methyl-N-(4-((4-methylpiperazine-1-yl)methyl)-3-trifluoromethylphenyl)benzamide or 118 mg of 3-(1,2,4-triazolo[4,3-a]pyridine-3-ylethynyl)-4-methyl-N-(4-((4-methylpiperazine-1-yl)methyl)-3-trifluoromethylphenyl)benzamide methanesulfonic acid salt (100 mg calculated as free base) were used for dissolution. In 780 minutes (13 hours) after the beginning of the test, pH of prepared solutions was measured.

[7] = Solubility of the free base in various solvents; type: physicochemical; settings: thermodynamic from solid
Protocol: At the first stage the initial base was tested for solubility in selected organic solvents. The maximum selected solvent volume used in this test was 1.25 mL per 1 mg of base. Low toxicity (Class 3), low-boiling (Tboiling<100° C.), polar, solvents. in which the base was soluble at no less than 10 mg/mL were selected for further studies.

[8] = physchem; settings: deionized water, thermodynamic from solid, Equilibrium solubility, HPLC analysis
[9] = in vivo; design: species or system C57BL/6 line mice
Protocol: FIGS. 52A-52B. […] The mean values were determined for each time point on the basis of the individual data obtained from three animals.
The results of the study are given in FIG. 52 and in Tables 14 and 15.

[10] = system: Sca1+ marrow cells, expressing p185-T315I^BCR/ABL; assay: BCR/ABL-induced chronic myelogenous leukemia model; type: in vivo, C57BL/6N line mice; settings: oral, 50 mg/kg free base; control 55.0 ± 6.3
Protocol: To assess the efficacy of the free base and methanesulfonic acid salt of 3-(1,2,4-triazolo[4,3-a]pyridine-3-ylethynyl)-4-methyl-N-(4-((4-methylpiperazine-1-yl)methyl)-3-trifluoromethylphenyl)benzamide for treating chronic myelogenous leukemia (CML) studies of the compounds' activity on the BCR/ABL-induced CML-like disease in mice were conducted. In the study C57BL/6N line mice were used. […] The efficacy of therapy with 3-(1,2,4-triazolo[4,3-a]pyridine-3-ylethynyl)-4-methyl-N-(4-((4-methylpiperazine-1-yl)methyl)-3-trifluoromethylphenyl)benzamide administered orally as a free base and methanesulfonic acid salt was studied.

[11] = pKa of the base; type: physicochemical
[12] = system: CD-1 line mice males; assay: Acute toxicity, oral route, mice
From the text: (§1) For each drug dose study a group of six animals was used. The study included control groups with the same animal headcount, which received equivalent solvent doses of a 0.5% water solution of methylcellulose. The follow-up period was 28 days. Lab mouse survivability analysis allowed carrying out Bliss analysis and determining the lethal doses of the studied drugs.

[13] = Acute toxicity, oral route, mice; settings: male, CD-1, mouse, in vivo, po, LD50, oral, male CD-1 mice; dose of the substance administered
From the text: as §1

[14] = mouse, free base 50 mg/kg, single oral, C57BL/6 mice, plasma
[15] = oral, male CD-1 mice, dose of the substance administered
[16] = mesylate polymorphous modification I 59 mg/kg (50 mg/kg as free base), single oral, C57BL/6 mice

Cc1ccc(C(=O)Nc2ccc(CN3CCN(C)CC3)c(C(F)(F)F)c2)cc1C#Cc1nnc2ccccn12.Cl [HAL-G-196-2]
sample hygroscopicity (water sorption and desorption) ([1]; gravimetric moisture absorption): desorbed and sorbed water, the volume of which corresponded to a dihydrate | Apparent solubility ([2]; RT): >29 mg/mL

Cc1ccc(C(=O)Nc2ccc(CN3CCN(C)CC3)c(C(F)(F)F)c2)cc1C#Cc1nnc2ccccn12.Cl [HAL-G-196-3]
water absorbed (hygroscopicity) [1]: less than 8 mass percent | crystalline structure after suspending in acetone [3]: remained unchanged | Crystallinity in 6 days [3]: Form II | Crystallinity in 7 days [4]: Form II | Relative peak area, in 7 days [4]: 99.9% | Relative peak area, initial [4]: 99.9% | content of impurities [4]: remained constant | pH [5]: 4.0 | Crystallinity in 24 h [5]: Amorphous

Br.Cc1ccc(C(=O)Nc2ccc(CN3CCN(C)CC3)c(C(F)(F)F)c2)cc1C#Cc1nnc2ccccn12 [HAL-G-196-7]
water absorbed (hygroscopicity) [1]: more than ten mass percent of water and thawed in the air

Cc1ccc(C(=O)Nc2ccc(CN3CCN(C)CC3)c(C(F)(F)F)c2)cc1C#Cc1nnc2ccccn12.Cc1ccc(S(=O)(=O)O)cc1 [HAL-G-196-24]
water absorbed (hygroscopicity) [1]: less than four mass percent of water | crystalline structure after suspending in acetone [3]: remained unchanged | Crystallinity in 7 days [4]: Cryst. | Relative peak area, in 7 days [4]: 99.9% | Relative peak area, initial [4]: 99.8% | content of impurities [4]: remained constant | pH [5]: 3.5 | Crystallinity in 24 h [5]: Cryst.

Cc1ccc(C(=O)Nc2ccc(CN3CCN(C)CC3)c(C(F)(F)F)c2)cc1C#Cc1nnc2ccccn12.O=C(O)/C=C/C(=O)O [HAL-G-196-29]
water absorbed (hygroscopicity) [1]: less than four mass percent of water | crystalline structure after suspending in acetone [3]: remained unchanged | Crystallinity in 6 days [3]: Cryst. | Crystallinity in 7 days [4]: Cryst. | Relative peak area, in 7 days [4]: 99.9% | Relative peak area, initial [4]: 99.8% | content of impurities [4]: remained constant | pH [5]: 4.2 | Crystallinity in 24 h [5]: Cryst.

Cc1ccc(C(=O)Nc2ccc(CN3CCN(C)CC3)c(C(F)(F)F)c2)cc1C#Cc1nnc2ccccn12 [free base, 3-(1,2,4-triazolo[4,3-a]pyridine-3-ylethynyl)-4-methyl-N-(4-((4-methylpiperazin-1-yl)methyl)-3-trifluoromethylphenyl)benzamide]
water absorbed (hygroscopicity) [1]: less than three mass percent of water | pH of prepared solution ([6]; medium 12.2 mL methanesulfonic acid in 500 mL water): 4.02 | share dissolved ([6]; solution containing 12.2 mL methanesulfonic acid, 780 minutes (13 hours)): less than 90% | crystalline structure after suspending in acetone [3]: changes | Crystallinity in 6 days [3]: Form II | Crystallinity in 7 days [4]: Form I | Relative peak area, in 7 days [4]: 99.7% | Relative peak area, initial [4]: 99.7% | content of impurities [4]: remains constant | solubility ([7]; organic solvent or mixture, 2-methyltetrahydrofuran, 3.7 mg in 0.6 mL, 50 °C): > 800 µg/mL | solubility ([7]; organic solvent or mixture, Acetone, 3.4 mg in 0.3 mL, 50 °C): > 800 µg/mL | solubility ([7]; organic solvent or mixture, Acetonitrile, 3.5 mg in 4.0 mL, 50 °C): < 800 µg/mL | solubility ([7]; organic solvent or mixture, Cyclohexane, 4.3 mg in 4.0 mL, 50 °C): < 800 µg/mL | solubility ([7]; organic solvent or mixture, Dichloromethane, 3.7 mg in 0.4 mL, 50 °C): > 800 µg/mL | solubility ([7]; organic solvent or mixture, Dimethyl sulfoxide, 3.8 mg in 0.1 mL, RT): > 800 µg/mL | solubility ([7]; organic solvent or mixture, Dimethylformamide, 4.7 mg in 0.1 mL, RT): > 800 µg/mL | solubility ([7]; organic solvent or mixture, Ethanol, 4.7 mg in 0.3 mL, 50 °C): > 800 µg/mL | solubility ([7]; organic solvent or mixture, Ethyl acetate, 3.9 mg in 1.3 mL, 50 °C): > 800 µg/mL | solubility ([7]; organic solvent or mixture, Heptane, 3.3 mg in 4.0 mL, 50 °C): < 800 µg/mL | solubility ([7]; organic solvent or mixture, Isopropanol, 3.6 mg in 0.4 mL, 50 °C): > 800 µg/mL | solubility ([7]; organic solvent or mixture, Isopropyl acetate, 4.0 mg in 4.0 mL, 50 °C): < 800 µg/mL | solubility ([7]; organic solvent or mixture, Methanol, 4.0 mg in 0.1 mL, 50 °C): > 800 µg/mL | solubility ([7]; organic solvent or mixture, Methyl ethyl ketone, 4.8 mg in 0.4 mL, 50 °C): > 800 µg/mL | solubility ([7]; organic solvent or mixture, Methyl isobutyl ketone, 4.1 mg in 0.6 mL, 50 °C): > 800 µg/mL | solubility ([7]; organic solvent or mixture, Methyl tert-butyl ether, 4.7 mg in 4.0 mL, 50 °C): < 800 µg/mL | solubility ([7]; organic solvent or mixture, N-methylpyrrolidone, 3.7 mg in 0.1 mL, RT): > 800 µg/mL | solubility ([7]; organic solvent or mixture, Tetrahydrofuran, 3.6 mg in 0.1 mL, 50 °C): > 800 µg/mL | solubility ([7]; organic solvent or mixture, Toluene, 3.4 mg in 4.0 mL, 50 °C): < 800 µg/mL | solubility ([7]; organic solvent or mixture, n-Butanol, 3.6 mg in 0.2 mL, 50 °C): > 800 µg/mL | solubility ([7]; Water, 4.6 mg in 4.0 mL, 50 °C): < 800 µg/mL | solubility thermodynamic [8]: 0.23 µg/mL (≈ 0.432 µM) | solubility ([2]; water, read-out: Apparent solubility): < 1000 µg/mL | pH [5]: 5.3 | Crystallinity in 24 h [5]: Cryst. | AUC0-24/24 ([9]; free base 50 mg/kg, single oral, C57BL/6 mice, plasma): 452 ng/mL | AUC(0-inf) [9, 14]: 10900 ng·h/mL | half-life [9, 14]: 144 min | AUC(0-t) ([9]; mouse, free base 50 mg/kg, single oral, C57BL/6 mice, plasma, read-out: AUC0-24): 10900 ng·h/mL | Cmax ([9]; mouse, free base 50 mg/kg, single oral, C57BL/6 mice, plasma, read-out: Cmax): 1490 ng/mL | Tmax ([9]; mouse, free base 50 mg/kg, single oral, C57BL/6 mice, plasma, read-out: Tmax): 2 h | Average life [10]: 93.0 ± 6.1 days | pKa [11]: ~6.4 | Dose without observable effects ([12]; male, CD-1, mouse, in vivo, po, 28 days): 160 mg/kg | signs of animal intoxication ([12]; mouse, in vivo, po): dyspnea, hypodynamia, tumbled fur, diarrhea, bloating, in some animals—focal alopecia | LD10 [12, 15]: 504 mg/kg | LD90 [12, 15]: 850 mg/kg | LD50 at 28 days [13]: 677 ± 55 mg/kg

CS(=O)(=O)O.Cc1ccc(C(=O)Nc2ccc(CN3CCN(C)CC3)c(C(F)(F)F)c2)cc1C#Cc1nnc2ccccn12 [methanesulfonic acid salt (polymorphous modification I)] [3-(1,2,4-triazolo[4,3-a]pyridine-3-ylethynyl)-4-methyl-N-(4-((4-methylpiperazin-1-yl)methyl)-3-trifluoromethylphenyl)benzamide mono methanesulfonic acid salt, polymorphous modification I]
pH of prepared solution ([6]; medium distilled water): 5.04 | AUC0-24 [9, 16]: 11,933 ngh/mL | AUC0-24/24 [9, 16]: 497 ng/mL | AUC0-∞ [9, 16]: 12,103 ng · h/mL | Cmax [9, 16]: 1,099 ng/mL | T1/2 [9, 16]: 3.8 h | Tmax [9, 16]: 4 h

CS(=O)(=O)O.Cc1ccc(C(=O)Nc2ccc(CN3CCN(C)CC3)c(C(F)(F)F)c2)cc1C#Cc1nnc2ccccn12 [methanesulfonic acid salt (polymorphous modification II)] [3-(1,2,4-triazolo[4,3-a]pyridine-3-ylethynyl)-4-methyl-N-(4-((4-methylpiperazin-1-yl)methyl)-3-trifluoromethylphenyl)benzamide mono methanesulfonic acid salt, polymorphous modification II]
pH of prepared solution ([6]; medium distilled water): 4.95 | differences in all pharmacokinetic parameters studied versus polymorphous modification I ([9]; mouse, in vivo): No statistically true differences in all pharmacokinetic parameters studied were revealed after administration of the salt form as polymorphous modification II (p < 0.05).
